Here are results for one compound from patent publication US8008478B2, “Process for the preparation of cefixime” (Lupin Limited, priority 2004, dated 2011).

This data set is described as follows: Solubility check of a 3.3% solution of cefixime (I) in methanol. Type of data set: physicochemical. The note with it: for Solubility: 3.3% solution of cefixime (I) in methanol. On the procedure:
The most preferred embodiment of the present invention is the acidification of the filtrate obtained in step (ii) to pH 2.0 to 3.0, preferably to 2.2 to 2.4 with dilute […] filtration at 50-80°, preferably at 60-70° C., most preferably at 64-68° C.

With `C=CC1=C(C(=O)O)N2C(=O)C(NC(=O)/C(=N\OCC(=O)O)c3csc(N)n3)C2SC1` (stereo not drawn) [cefixime (I), [6R-[6α,7β(Z)]]-7-[[(2-amino-4-thiazolyl)[(carboxymethoxy)imino]acetyl]amino]-3-vinyl-3-cephem-4-carboxylic acid], the Solubility result is reported as “Hazy” (acidification and isolation of cefixime methyl ester (IV) at 25-30° C.); “Hazy” (acidification and isolation of cefixime methyl ester (IV) at 45-47° C.); “Clear” (acidification and isolation of cefixime methyl ester (IV) at 65-67° C.). In addition, the “Solubility profile (in words)” value (acidification and isolation of cefixime ester (IV) at 50-80° C., then alkaline hydrolysis) is “better solubility profile”. Moreover, the “Solubility (in words)” value (acidification and isolation of cefixime ester (IV) at temperature below 50° C., then alkaline hydrolysis) is listed as “poor solubility”.
